Like-named read-outs stand apart in the source and are kept apart here.
How the values were obtained:
[1] = GSH reaction rates (inherent GSH reactivity); type: in vitro ADME
Protocol: (§1) Therefore Strategy to minimize the GSH metabolism is very critical. Short T1/2 in inherent GSH reaction indicated high GSH reaction rate. Thus T1/2 in inherent GSH reaction assay was determined for the screening of candidates. Reference compounds and compounds of this invention potentially could form conjugation with GSH either through halogenated moieties substitution reaction or direct Michael addition reaction. This test was therefore performed to check GSH reactivity of listed compounds. For inherent GSH reactivity determination, compounds at 1 μM were incubated at 37° C. with and without 5 mM GSH for 0, 0.5, 1, 2, 4 and 6 h in 100 mM potassium phosphate buffer at pH 7.4. At the end of the designated time points, samples were quenched with acetonitrile containing 10 mM N-ethylmaleimide and an internal standard. Quenched samples were centrifuged, and supernatants were analyzed by LC-MS/MS for compound quantification.

GSH = GSH reaction rates (inherent GSH reactivity); type: in vitro ADME; settings: buffer, pH 7.4
Protocol: as §1

[2] = tested on: KRAS G12C in NCI-H358 cells; test: pERK inhibition assay, NCI-H358; type: cell-based, human; settings: 4 hours incubation
How it was run: (§2)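 NCI-H358, AGS and SW620 cells in RPMI-1640/10% FBS were plated overnight, then exposed to compound (0.5% DMSO final) for 4 h. After fixation and permeabilization, phospho-ERK was quantified by in-cell ELISA (HRP secondary, TMB, OD450); IC50 from a 4-parameter sigmoidal fit.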

KRAS G12D in AGS cells = test: pERK inhibition assay, AGS; type: cell-based, human; settings: 4 hours incubation
How it was run: as §2

KRAS G12V in SW620 = test: pERK inhibition assay, SW620; type: cell-based, human; settings: 4 hours incubation
How it was run: as §2

NCI-H358 cells = test: Cell viability assay, NCI-H358; type: cell-based, human; settings: NCI-H358, 72 hours, Cell Counting Kit-8, read-out: G12C IC50
How it was run: (§3)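 Cells were plated at 5,000 (NCI-H358) or 2,000 (AGS, SW620) per well and incubated overnight. They were then treated with compound in 0.5% DMSO for 72 h. Viability was read with CCK-8 as OD450 minus OD650 after 2 h, and IC50 came from a 4-parameter sigmoidal fit.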

AGS cells = test: Cell viability assay, AGS; type: cell-based, human; settings: 72 hours, Cell Counting Kit-8, read-out: G12D IC50
How it was run: as §3

SW620 cells = test: Cell viability assay, SW620; type: cell-based, human; settings: Cell Counting Kit-8, read-out: G12V IC50
How it was run: as §3

[3] = Human hepatocytes stability assay; type: in vitro ADME; settings: for CL_hep (Human): 1 μM compound, human hepatocytes 1×10^6 cells/mL
Protocol: The hepatocyte stability assay measures the rate of disappearance of a compound from incubations with cryopreserved suspension hepatocytes from human. Positive controls, including Midazolam, Raloxifene and Dextromethorphan, are included in every experiment. Incubations consist of 1 μM tested compound and suspension of human hepatocytes (1×10^6 cells/mL) in supplemented Williams' E Medium with […] and 0.5% Penicillin-streptomycin. The hepatocyte suspension was incubated with intermittent shaking 900 rpm at 37° C., in a 5% CO2 incubator. The reaction was stopped by adding methanol containing internal standard (2 μM Tolbutamide) at 2, 10, 20, 40, 60 and 120 minutes after compound addition, depletion of the parent compound was monitored by LC-MS/MS analysis.

KRAS G12C-BRAF complex [4] = target: T1, KRAS G12C-BRAF complex (Homo sapiens (Human), UniProt P01116+P62937, G12C); test: KRAS G12C-BRAF NanoBit assay; type: cell-based; settings: HEK293 cells, SmBit-KRAS G12C and BRAF RBD-LgBit, 3 hours incubation
T1 sequence (P01116-2 other isoform, or with tags, fused parts or gaps G12C): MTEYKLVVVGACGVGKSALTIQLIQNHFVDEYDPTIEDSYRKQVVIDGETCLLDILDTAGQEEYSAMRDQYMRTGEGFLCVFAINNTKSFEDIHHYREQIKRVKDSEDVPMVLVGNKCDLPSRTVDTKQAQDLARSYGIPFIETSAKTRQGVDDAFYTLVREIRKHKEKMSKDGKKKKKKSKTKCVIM
T1 sequence (P62937 whole entry): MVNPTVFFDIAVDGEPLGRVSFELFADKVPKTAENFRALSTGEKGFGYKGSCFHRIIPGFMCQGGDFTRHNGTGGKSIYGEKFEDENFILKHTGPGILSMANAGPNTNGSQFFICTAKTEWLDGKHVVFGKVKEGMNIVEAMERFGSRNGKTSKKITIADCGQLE
Protocol: This assay is to measure the ability of tested compounds in disruption of the KRAS G12C-BRAF complex at the cellular level, we established the NanoBit cellular assay in mammalian HEK293 (ATCC) cells. HEK293 cells were grown and maintained using DMEM medium (Thermo Fisher Scientific) with 10% fetal bovine serum and 1% penicillin/streptomycin. Both KRAS G12C and BRAF RBD were cloned into the NanoBit vectors ([…] vectors system, Promega) with the orientations SmBit-KRAS G12C and BRAF RBD-LgBit, respectively, and co-transfected into HEK293 cells. Cells were then selected with 100 μg/mL Hygromycin B (10687010, Thermo Fisher) and Blasticidin (5 μg/mL) for 4 weeks to get the stable cell pool. On the day of the assay, 75 nL of compound solution was presented in a 384-well assay plate as a 16-point 3-fold dilution starting from a final concentration of 30 μM in DMSO. Then cells were seeded at 10,000 cells/25 μL/well in a 384-well plate. After 3 hours of incubation, 6 μL of volume of Nano-Glo® Live Cell Substrate (Promega) was added into each well. Monitor luminescence using ultra384 model in Envision at 20 minutes. Compounds that facilitate disruption of the KRAS G12C-BRAF RBD complex were identified as those eliciting a decrease of luminescence relative to DMSO control wells.

KRAS G12C-BRAF complex [5] = target: T1, KRAS G12C-BRAF complex; test: KRAS-BRAF with CYPA (50 nM) interaction assay (TR-FRET), G12C; type: binding; settings: GMPPNP loaded 6His-KRAS, GST-BRAF RBD
Protocol: (§4) In this example, TR-FRET was also used to measure the compound or compound-CYPA dependent disruption of the KRAS G12C-BRAF complex. This protocol was also used to measure disruption of KRAS G12D or KRAS G12V binding to BRAF by a compound of the invention, respectively. In assay buffer containing 25 mM HEPES PH=7.4 (4-(2-hydroxyethyl)-1-piperazineethanesulfonic acid, Thermo, 15630080), 0.002% Tween20, 0.1% BSA, 100 mM NaCl, 5 mM MgCl2, 10 μM GMPPNP (Guanosine 5'-[β,γ-imido]triphosphate trisodium salt hydrate, Sigma, G0635), tagless CYPA, GMPPNP loaded 6His-KRAS proteins, and GST-BRAF^RBD were mixed in a well of a 384-well assay plate at final concentrations of 50 nM, 6.25 nM and 1 nM, respectively. Compound was present in plate wells as a 16-point 3-fold dilution series starting at a final concentration of 10 μM and incubated for 3 hours. A mixture of MAb Anti-6His-XL665 (Cisbio, 61HISXLB) and Mab anti-GST-TB cryptate (Cisbio, 61GSTTLB) was then added at a final concentration of 6.67 nM and 0.21 nM, respectively, and the plate was incubated for an additional 1.5 hours. TR-FRET signal was read on a […] microplate reader (Ex320 nm, Em 665/615 nm). Compounds that facilitate disruption of the KRAS-BRAF complex were identified as those eliciting a decrease in the TR-FRET ratio relative to DMSO control wells.

[6] = target: KRAS G12D binding to BRAF (Homo sapiens (Human), UniProt P01116+P62937, G12D); test: KRAS-BRAF with CYPA (50 nM) interaction assay (TR-FRET), G12D; settings: GMPPNP loaded 6His-KRAS, GST-BRAF RBD
Chain of KRAS G12D binding to BRAF (P01116-2 other isoform, or with tags, fused parts or gaps G12D): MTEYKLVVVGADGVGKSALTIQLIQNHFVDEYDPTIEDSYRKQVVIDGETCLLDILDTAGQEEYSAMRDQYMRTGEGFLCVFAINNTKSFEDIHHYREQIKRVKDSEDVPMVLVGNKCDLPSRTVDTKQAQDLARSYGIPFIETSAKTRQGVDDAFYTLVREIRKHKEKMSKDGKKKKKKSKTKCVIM
Chain of KRAS G12D binding to BRAF (P62937 whole entry): as the sequence (P62937 whole entry) above
Protocol: as §4

[7] = target: KRAS G12V binding to BRAF (Homo sapiens (Human), UniProt P01116+P62937, G12V); test: KRAS-BRAF with CYPA (50 nM) interaction assay (TR-FRET), G12V; settings: GMPPNP loaded 6His-KRAS, GST-BRAF RBD
Chain of KRAS G12V binding to BRAF (P01116-2 other isoform, or with tags, fused parts or gaps G12V): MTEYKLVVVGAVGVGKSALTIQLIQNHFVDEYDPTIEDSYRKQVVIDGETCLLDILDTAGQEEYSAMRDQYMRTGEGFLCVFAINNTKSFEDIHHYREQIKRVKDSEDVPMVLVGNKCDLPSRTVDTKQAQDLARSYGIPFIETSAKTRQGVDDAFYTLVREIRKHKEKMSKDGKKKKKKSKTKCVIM
Chain of KRAS G12V binding to BRAF (P62937 whole entry): as the sequence (P62937 whole entry) above
Protocol: as §4

[8] = Homo sapiens, SW-620, SW620 cells
[9] = Homo sapiens, SW-620, SW620, 72 hours

conjugation with GSH (in words) [1]	half-life at 1 μM (GSH) [h]	CL_hep (Human) [3] [mL/min/kg]	SMILES	IC50 ([2]; Homo sapiens) [µM]	IC50 (KRAS G12D in AGS cells; Homo sapiens) [µM]	IC50 (KRAS G12V in SW620; [8]) [µM]	IC50 (NCI-H358 cells; Homo sapiens) [µM]	IC50 (AGS cells; Homo sapiens) [µM]	IC50 (SW620 cells; [9]) [µM]	Clearance Category ([3]; human hepatocytes)	IC50 (KRAS G12C-BRAF complex [4]) [µM]	IC50 (KRAS G12C-BRAF complex [5]) [µM]	IC50 [6] [µM]	IC50 [7] [µM]	IC50 [2] [µM]	IC50 (KRAS G12D in AGS cells) [µM]	IC50 (KRAS G12V in SW620; SW620 cells) [µM]	IC50 (NCI-H358 cells) [µM]	IC50 (AGS cells) [µM]	IC50 (SW620 cells; SW620, 72 hours) [µM]
formed conjugation with GSH	5	16.4	CCn1c(-c2cccnc2[C@H](C)OC)c2c3cc(ccc31)-c1cc(O)cc(c1)C[C@H](NC(=O)[C@H](C(C)C)N(C)C(=O)C1CN(C(=O)CCl)C1)C(=O)N1CCC[C@H](N1)C(=O)OCC(C)(C)C2 [RM461, reference compound]	0.007	> 10	> 10	0.022	2.71	4.04	high (CL_hep (mL/min/kg)>16.24 is high clearance)	–	–	–	–	–	–	–	–	–	–
–	–	–	CCn1c(-c2cc(N3CCN(C)CC3)cnc2[C@H](C)OC)c2c3cc(ccc31)-c1cc(O)cc(c1)C[C@H](NC(=O)[C@H](C(C)C)N(C)C(=O)[C@H]1CCN(C(=O)[C@H](F)Cl)C1)C(=O)N1CCC[C@H](N1)C(=O)OCC(C)(C)C2 (atropisomer, axis not shown; (M)) [Example 12, (3S)-1-[(2R)-2-chloro-2-fluoro-acetyl]-N-[(1S)-1-[[(8S,14S)-22-ethyl-4-hydroxy-(21M)-21-[2-[(1S)-1-methoxyethyl]-5-(4-methylpiperazin-1-yl)-3-pyridyl]-18,18-dimethyl-9,15-dioxo-16-oxa-10,22,28-triazapentacyclo[18.5.2.12,6.110,14.023,27]nonacosa-1(26),2,4,6(29),20,23(27),24-heptaen-8-yl]carbamoyl]-2-methyl-propyl]-N-methyl-pyrrolidine-3-carboxamide]	0.006	0.01	0.012	0.005	0.016	0.016	–	0.037	0.002	0.006	0.003	–	–	–	–	–	–
–	–	–	CCn1c(-c2cc(N3CCN(C)CC3)cnc2[C@H](C)OC)c2c3cc(ccc31)-c1csc(n1)C[C@H](NC(=O)[C@H](C(C)C)N1CCCC3(CCN(C(=O)[C@H](F)Cl)C3)C1=O)C(=O)N1CCC[C@H](N1)C(=O)OCC(C)(C)C2 (stereo partly drawn) [Example 18, (2S)-2-[2-[(2R)-2-chloro-2-fluoro-acetyl]-6-oxo-2,7-diazaspiro[4.5]decan-7-yl]-N-[(7S,13S)-21-ethyl-(20M)-20-[2-[(1S)-1-methoxyethyl]-5-(4-methylpiperazin-1-yl)-3-pyridyl]-17,17-dimethyl-8,14-dioxo-15-oxa-4-thia-9,21,27,28-tetrazapentacyclo[17.5.2.12,5.19,13.022,26]octacosa-1(25),2,5(28),19,22(26),23-hexaen-7-yl]-3-methyl-butanamide]	0.003	0.026	0.028	0.0007	0.019	0.026	–	0.02	0.068	> 10	> 10	–	–	–	–	–	–
formed conjugation with GSH	4.3	15.5	CC(C)[C@@H](C(=O)N[C@H]1Cc2cc(O)cc(c2)-c2ccc3c(C(C)(C)C#N)cn(c3c2)CC(C)(C)COC(=O)[C@@H]2CCCN(N2)C1=O)N1CCCC2(CCN(C(=O)CCl)C2)C1=O (stereo partly shown) [RM351, reference compound]	0.356	> 10	> 10	1.39	2.1	4.81	–	–	–	–	–	–	–	–	–	–	–
–	–	–	CO[C@@H](C)c1ncc(N2CCN(C)CC2)cc1-c1c2c3cc(ccc3n1CC(F)(F)F)-c1csc(n1)C[C@H](NC(=O)[C@H](C(C)C)N1CC[C@]3(CCN(C(=O)[C@H](F)Cl)C3)C1=O)C(=O)N1CCC[C@H](N1)C(=O)OCC(C)(C)C2 [Example 24, (2S)-2-[(5R)-7-[(2R)-2-chloro-2-fluoro-acetyl]-1-oxo-2,7-diazaspiro[4.4]nonan-2-yl]-N-[(7S,13S)-(20M)-20-[2-[(1S)-1-methoxyethyl]-5-(4-methylpiperazin-1-yl)-3-pyridyl]-17,17-dimethyl-8,14-dioxo-21-(2,2,2-trifluoroethyl)-15-oxa-4-thia-9,21,27,28-tetrazapentacyclo[17.5.2.12,5.19,13.022,26]octacosa-1(25),2,5(28),19,22(26),23-hexaen-7-yl]-3-methyl-butanamide]	–	–	–	–	–	–	–	0.036	0.021	> 10	> 10	0.002	0.065	0.042	< 0.0006	0.886	0.489

From patent publication US20250163072A1, “MACROCYCLIC COMPOUNDS FOR THE TREATMENT OF CANCER” (Hoffmann-La Roche Inc., priority 2021, published 2025)
